Results: patent publication US7981899B2, “Use of compatible solutes for inhibiting the release of ceramides” (Merck Patent GmbH, priority 2002, dated 2011)

Columns and labels:
[1] = test system: normal human keratinocytes; experiment: Release of second messenger in UV-A-irradiated keratinocytes (Example A); assay type: cell-based; details: 2 mM for 24 hours
Experimental: Normal human keratinocytes which are left untreated or have been treated with a 2 mM solution of RONACARE™ ectoin for 24 hours are subjected to a UV-A radiation dose of 30 J/cm^2 (wavelength of the UV-A radiation: 340-400 nm). […] The cells are harvested 1 hour after irradiation (=maximum UV-A-induced second messenger formation). The release of the second messenger was determined.

[2] = test system: normal human keratinocytes; experiment: Inhibition of UV-A-induced ceramide formation, quantitative HPTLC (Example B1); assay type: cell-based; details: 1 mM pre-incubation for 24 hours, UVA 30 J/cm^2, 1 hour after irradiation, FIG. 1
Experimental: The concentration of a second messenger (ceramide) in UVA-irradiated normal human keratinocytes which have either been pretreated with 1 mM RONACARE™ ectoin or are untreated compared with unirradiated keratinocytes is measured using a quantitative HPTLC method. (A) Un-pretreated control, (B) pre-incubated only with the cell medium for 24 hours, (C) pre-incubated with 1 mM RONACARE™ ectoin for 24 hours. The cells pre-treated in this way are irradiated with a single dose of UVA of 30 J/cm^2 (radiation source: Sellamed 24000). The cells are “harvested” 1 hour after irradiation, a lipid extraction is carried out, and the concentration of the second messenger is determined by quantitative HPTLC. Methodological details are given in Grether-Beck Set al., EMBO J 19: 5793-5800, 2000. […] The data are shown as histograms of ectoin (mM) against ceramide (ng).

[3] = test system: transcription factor AP-2; experiment: Inhibition of UV-A-induced AP-2 activation, gel electrophoresis mobility shift assay (Example B2); assay type: cell-based; details: human keratinocytes, 1 mM pre-incubation for 24 hours, UV-A 30 J/cm^2, FIG. 2
Experimental: The determination of the activation of transcription factor AP-2 is carried out with the aid of gel electrophoresis mobility shift assays (GEMSA). To this end, a nucleus extract (according to J.D. Dignam, P.L.Martin, B.S. Skastry, R.G.G. Roeder, Methods Enzymol 101 (1983) 582-598) of human keratinocytes which had previously been irradiated for 1 hour with 30 J/cm^2 of UV-A light is incubated in comparison with an unirradiated control with the consensus oligonucleotide sequence of ICAM-1 promoter (in accordance with G.G. Stade, G. Messer, G. Riethmüller, J.P. Johannson; Immunobiology 182 (1990) 79-87). The amount of bound AP-2 is subsequently determined by means of GEMSA. (A) Un-pretreated, unirradiated control, (B) pre-incubated with 1 mM RONACARE™ ectoin for 24 hours and irradiated with a single dose of 30 J/cm^2, or (C) pre-incubated only with the cell medium for 24 hours and irradiated with 30 J/cm^2. The UVA irradiation results in activation of transcription factor AP-2 after UVA exposure.

ICAM-1 = experiment: Inhibition of UV-A-induced ICAM-1 expression, differential RT-PCR (Example B3); assay type: cell-based, human; details: keratinocytes, 1 mM pre-incubation for 24 hours, UVA 30 J/cm^2, relative to β-actin, all points in time, FIG. 3
Experimental: The expression of ICAM-1 is measured using differential reverse transcriptase PCR (RT -PCR) and the kit from Applied Biosystem. In order to take into account the normal variations in gene expression of skin cells, the ICAM-1 expression is compared with the housekeeping gene β-actin formed constitutively. Semiquantitative analysis of the RT-PCR is carried out by ion exchange chromatography using a UV spectrophotometer (A260). (A) Un-pretreated, irradiated control, (B) pre-incubated with 1 mM RONACARE™ ectoin for 24 hours and irradiated with a single dose of 30 J/cm^2, or (C) pre-incubated with 1 mM ectoin for 24 hours, unirradiated. The UVA radiation induces an increase in ICAM-1 expression.

dermal human fibroblasts = experiment: UVA radiation-induced formation of mitochondrial DNA mutations (common deletion), PCR (Example B4); assay type: cell-based; details: 1 mM pretreatment, 8 J/cm^2 UVA three times daily, four successive days, three weeks, FIG. 4
Text: Dermal human fibroblasts are cultivated in Eagle minimal medium. The cells are irradiated three times daily with 8 J/cm^2 of UVA on four successive days over a total of three weeks. The mt-DNA is then extracted and amplified using PCR. Further details on the method are described in detail in M. Berneburg, S. Grether-Beck, V. Kürten, Th. Ruzicka, K. Briviba, H. Sies, J. Krutmann, J Biol Chem 274 (1999) 15345-15349 and M. Berneburg, N. Gattermann, H. Stege, M. Grewe, K. Vogelsang, Th. Ruzicka, J. Krutmann, Photobiol. 66 (1997) 271-275.

CC1=N[C@H](C(=O)O)CCN1 [RONACARE™ ectoin, (S)-1,4,5,6-tetrahydro-2-methyl-4-pyrimidinecarboxylic acid]
UV-A-induced release of the second messenger ([1]; UV-A 30 J/cm^2): inhibits the UV-A-induced release of the second messenger | Increase in second messenger ([1]; UV-A 30 J/cm^2 (340-400 nm), harvested 1 hour after irradiation): 5.65 ng | ceramide formation induced by UVA radiation [2]: completely suppresses ceramide formation | activation of transcription factor AP-2 after UVA exposure [3]: suppressed virtually completely | ICAM-1 induction induced by UVA radiation (ICAM-1): virtually completely eliminate ICAM-1 induction | formation of mt-DNA mutations (dermal human fibroblasts): prevented the formation of mt-DNA mutations
